Reference: ChEMBL document CHEMBL1201862, “PubChem BioAssay data set” (2004)
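Step 1: Grow cells in 96-well plates. Step 2: Expose to compound for 48 hours at 5 concentrations. Step 3: Interpolate endpoints linearly; if unreached, use highest concentration. The concentration for 50% growth inhibition is given as GI50.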 The source made the active and inactive calls. Rule as the data show it: active = GI50 up to about 1.1 µM and inactive = higher.

How the values were obtained:
Experiment in all cases: NCI tumour cell line growth inhibition, 48 h
U-251 = system: U-251
786-0 = system: 786-0
UACC-62 = system: UACC-62
CAKI-1 = system: CAKI-1
SW-620 = system: SW-620
K562 = system: K562
OVCAR-3 = system: OVCAR-3
PC-3 = system: PC-3
MCF7 = system: MCF7
DU-145 = system: DU-145
SR = system: SR
SK-MEL-2 = system: SK-MEL-2
HCT-15 = system: HCT-15
KM12 = system: KM12
SN12C = system: SN12C
MOLT-4 = system: MOLT-4
HOP-92 = system: HOP-92
OVCAR-5 = system: OVCAR-5
M14 = system: M14
TK-10 = system: TK-10
HT-29 = system: HT-29
ACHN = system: ACHN
UACC-257 = system: UACC-257
IGROV-1 = system: IGROV-1
NCI-H23 = system: NCI-H23
SNB-75 = system: SNB-75
OVCAR-4 = system: OVCAR-4
SK-MEL-28 = system: SK-MEL-28
CCRF-CEM = system: CCRF-CEM
SK-OV-3 = system: SK-OV-3
SNB-19 = system: SNB-19
T47D = system: T47D
OVCAR-8 = system: OVCAR-8
A549 = system: A549
SF-268 = system: SF-268
LOX IMVI = system: LOX IMVI
NCI/ADR-RES = system: NCI/ADR-RES
NCI-H226 = system: NCI-H226
BT-549 = system: BT-549
HOP-62 = system: HOP-62
SK-MEL-5 = system: SK-MEL-5
SF-295 = system: SF-295
Malme-3M = system: Malme-3M
NCI-H522 = system: NCI-H522
EKVX = system: EKVX
COLO 205 = system: COLO 205
HL-60 = system: HL-60
NCI-H460 = system: NCI-H460
MDA-N = system: MDA-N
HCT-116 = system: HCT-116
RPMI-8226 = system: RPMI-8226
Hs-578T = system: Hs-578T
MDA-MB-435 = system: MDA-MB-435
UO-31 = system: UO-31
MDA-MB-231 = system: MDA-MB-231
A498 = system: A498
SF-539 = system: SF-539
HCC 2998 = system: HCC 2998
RXF 393 = system: RXF 393

c1ccc(/N=C(/Nc2ccccc2)N2CCCCC2)cc1
GI50 (U-251): > 100 µM (inactive) | GI50 (786-0): > 100 µM (inactive) | GI50 (UACC-62): 77.4 µM (inactive) | GI50 (CAKI-1): > 100 µM (inactive) | GI50 (SW-620): > 100 µM (inactive) | GI50 (K562): 40 µM (inactive) | GI50 (OVCAR-3): > 100 µM (inactive) | GI50 (PC-3): 80.2 µM (inactive) | GI50 (MCF7): 68.7 µM (inactive) | GI50 (DU-145): > 10 µM (inactive) | GI50 (SR): 73.6 µM (inactive) | GI50 (SK-MEL-2): > 100 µM (inactive) | GI50 (HCT-15): > 100 µM | GI50 (KM12): 72.1 µM (inactive) | GI50 (SN12C): > 100 µM (inactive) | GI50 (MOLT-4): 51.5 µM (inactive) | GI50 (HOP-92): 92 µM (inactive) | GI50 (OVCAR-5): > 100 µM (inactive) | GI50 (M14): 22.3 µM (inactive) | GI50 (TK-10): > 100 µM (inactive) | GI50 (HT-29): 39.6 µM (inactive) | GI50 (ACHN): > 100 µM (inactive) | GI50 (UACC-257): 21.6 µM (inactive) | GI50 (IGROV-1): 93.5 µM (inactive) | GI50 (NCI-H23): > 100 µM (inactive) | GI50 (SNB-75): 16.7 µM (inactive) | GI50 (OVCAR-4): > 100 µM (inactive) | GI50 (SK-MEL-28): 74 µM (inactive) | GI50 (CCRF-CEM): > 100 µM (inactive) | GI50 (SK-OV-3): 74.1 µM (inactive) | GI50 (SNB-19): > 100 µM (inactive) | GI50 (T47D): > 100 µM (inactive) | GI50 (OVCAR-8): > 100 µM (inactive) | GI50 (A549): > 100 µM (inactive) | GI50 (SF-268): > 100 µM (inactive) | GI50 (LOX IMVI): 40.3 µM (inactive) | GI50 (NCI/ADR-RES): > 100 µM (inactive) | GI50 (NCI-H226): > 100 µM (inactive) | GI50 (BT-549): > 100 µM (inactive) | GI50 (HOP-62): > 100 µM (inactive) | GI50 (SK-MEL-5): > 10 µM (inactive) | GI50 (SF-295): 54.7 µM (inactive) | GI50 (Malme-3M): 50.2 µM (inactive) | GI50 (NCI-H522): 67.3 µM (inactive) | GI50 (EKVX): > 100 µM (inactive) | GI50 (COLO 205): 59 µM (inactive) | GI50 (HL-60): 24.7 µM (inactive) | GI50 (NCI-H460): 73.3 µM (inactive) | GI50 (MDA-N): 43.3 µM (inactive) | GI50 (HCT-116): 38.6 µM (inactive) | GI50 (RPMI-8226): 97.9 µM (inactive) | GI50 (Hs-578T): 18.7 µM (inactive) | GI50 (MDA-MB-435): 41.6 µM (inactive) | GI50 (UO-31): 49.3 µM (inactive)

CC1CCC2c3c([nH]c4ccccc34)C3C(=O)N(C4CCCCC4)C(=O)C3C2C1 (stereo not drawn)
GI50 (U-251): 12.7 µM (inactive) | GI50 (786-0): 6.85 µM (inactive) | GI50 (UACC-62): 12.2 µM (inactive) | GI50 (CAKI-1): 14 µM (inactive) | GI50 (MDA-MB-231): 11.8 µM (inactive) | GI50 (SW-620): 67.3 µM (inactive) | GI50 (K562): 19 µM (inactive) | GI50 (OVCAR-3): 19.9 µM (inactive) | GI50 (PC-3): 38.3 µM (inactive) | GI50 (MCF7): > 10 µM (inactive) | GI50 (A498): 22 µM (inactive) | GI50 (DU-145): 30 µM (inactive) | GI50 (SR): 29.2 µM (inactive) | GI50 (SK-MEL-2): 17.4 µM (inactive) | GI50 (HCT-15): 49.8 µM | GI50 (SN12C): 22.9 µM (inactive) | GI50 (HOP-92): 21 µM (inactive) | GI50 (OVCAR-5): 18.5 µM (inactive) | GI50 (M14): 23.7 µM (inactive) | GI50 (TK-10): 13.4 µM (inactive) | GI50 (HT-29): > 100 µM (inactive) | GI50 (ACHN): 13.5 µM (inactive) | GI50 (UACC-257): 46.3 µM (inactive) | GI50 (SF-539): 21.9 µM (inactive) | GI50 (IGROV-1): 17.2 µM (inactive) | GI50 (NCI-H23): 23.7 µM (inactive) | GI50 (HCC 2998): > 100 µM (inactive) | GI50 (SNB-75): 2.78 µM (inactive) | GI50 (SK-MEL-28): 15.1 µM (inactive) | GI50 (CCRF-CEM): 57.7 µM (inactive) | GI50 (SK-OV-3): 18 µM (inactive) | GI50 (SNB-19): 16.4 µM (inactive) | GI50 (OVCAR-8): 15.4 µM (inactive) | GI50 (A549): 19.1 µM (inactive) | GI50 (SF-268): 13.6 µM (inactive) | GI50 (LOX IMVI): 52.5 µM (inactive) | GI50 (NCI/ADR-RES): 36.5 µM (inactive) | GI50 (NCI-H226): 16.5 µM (inactive) | GI50 (BT-549): 14.1 µM (inactive) | GI50 (HOP-62): 14.4 µM (inactive) | GI50 (SK-MEL-5): 17.9 µM (inactive) | GI50 (SF-295): 16.3 µM (inactive) | GI50 (Malme-3M): 29.3 µM (inactive) | GI50 (NCI-H522): > 100 µM (inactive) | GI50 (EKVX): 14.8 µM (inactive) | GI50 (COLO 205): > 100 µM (inactive) | GI50 (RXF 393): 13.7 µM (inactive) | GI50 (HL-60): > 100 µM (inactive) | GI50 (NCI-H460): 26 µM (inactive) | GI50 (MDA-N): 33.3 µM (inactive) | GI50 (HCT-116): 11.9 µM (inactive) | GI50 (RPMI-8226): 38.2 µM (inactive) | GI50 (Hs-578T): 13 µM (inactive) | GI50 (MDA-MB-435): 55.3 µM (inactive) | GI50 (UO-31): 19.8 µM (inactive)

Cn1c(=O)c(-c2ccccc2)c(O)c2ccccc21
GI50 (U-251): > 100 µM (inactive) | GI50 (786-0): > 100 µM (inactive) | GI50 (CAKI-1): > 100 µM (inactive) | GI50 (MDA-MB-231): > 100 µM (inactive) | GI50 (SW-620): > 100 µM (inactive) | GI50 (K562): > 100 µM (inactive) | GI50 (OVCAR-3): > 100 µM (inactive) | GI50 (PC-3): > 100 µM (inactive) | GI50 (MCF7): > 100 µM (inactive) | GI50 (A498): > 100 µM (inactive) | GI50 (DU-145): > 100 µM (inactive) | GI50 (SR): 42.5 µM (inactive) | GI50 (HCT-15): > 100 µM | GI50 (KM12): > 100 µM (inactive) | GI50 (SN12C): > 100 µM (inactive) | GI50 (MOLT-4): > 100 µM (inactive) | GI50 (HOP-92): > 100 µM (inactive) | GI50 (OVCAR-5): > 100 µM (inactive) | GI50 (TK-10): > 100 µM (inactive) | GI50 (HT-29): > 100 µM (inactive) | GI50 (ACHN): > 100 µM (inactive) | GI50 (UACC-257): > 100 µM (inactive) | GI50 (SF-539): > 100 µM (inactive) | GI50 (IGROV-1): > 100 µM (inactive) | GI50 (NCI-H23): > 100 µM (inactive) | GI50 (HCC 2998): > 100 µM (inactive) | GI50 (SNB-75): 0.92 µM (active) | GI50 (OVCAR-4): > 100 µM (inactive) | GI50 (SK-MEL-28): > 100 µM (inactive) | GI50 (CCRF-CEM): > 100 µM (inactive) | GI50 (SNB-19): > 100 µM (inactive) | GI50 (OVCAR-8): > 100 µM (inactive) | GI50 (A549): > 100 µM (inactive) | GI50 (SF-268): > 100 µM (inactive) | GI50 (LOX IMVI): > 100 µM (inactive) | GI50 (NCI/ADR-RES): > 100 µM (inactive) | GI50 (NCI-H226): > 100 µM (inactive) | GI50 (BT-549): > 100 µM (inactive) | GI50 (HOP-62): > 100 µM (inactive) | GI50 (SK-MEL-5): > 100 µM (inactive) | GI50 (SF-295): > 100 µM (inactive) | GI50 (Malme-3M): > 100 µM (inactive) | GI50 (NCI-H522): > 100 µM (inactive) | GI50 (EKVX): > 100 µM (inactive) | GI50 (COLO 205): > 100 µM (inactive) | GI50 (RXF 393): > 100 µM (inactive) | GI50 (HL-60): > 100 µM (inactive) | GI50 (NCI-H460): > 100 µM (inactive) | GI50 (MDA-N): > 100 µM (inactive) | GI50 (HCT-116): > 100 µM (inactive) | GI50 (RPMI-8226): > 100 µM (inactive) | GI50 (Hs-578T): 66.4 µM (inactive) | GI50 (MDA-MB-435): > 100 µM (inactive) | GI50 (UO-31): > 100 µM (inactive)
